This series can be described thus: ability of solvents and dispersion mediums to dissolve the therapeutic substance (sirolimus). The series is classed as physicochemical. On the procedure:
Solution 524 is a homogeneous mixture in which therapeutic substance 112 dissolves within a solvent or a solvent mixture. In one embodiment, solution 524 includes a high-capacity solvent 528 which is an organic solvent that has a high capacity to dissolve therapeutic substance 112. High capacity as utilized herein is defined as an ability to dissolve therapeutic substance 112 at concentrations greater than 500 mg of substance per milliliter of solvent. Examples of high capacity drug dissolving solvents for sirolimus and similar substances include but are not limited to tetrahydrofuran (THF), di-chloromethane (DCM), chloroform, and di-methyl-sulfoxide (DMSO). In addition to the high-capacity solvent, solution 524 may include an excipient 526 in order to assist in drug elution. In one embodiment, excipient 526 may be a surfactant such as but not limited to sorbitan fatty acid esters such as sorbitan monooleate and sorbitan monolaurate, polysorbates such as polysorbate 20, polysorbate 60, and polysorbate 80, cyclodextrins such as 2-hydroxypropyl-beta-cyclodextrin and 2,6-di-O-methyl-beta-cyclodextrin, sodium dodecyl sulfate, octyl glucoside, and low molecular weight poly(ethylene glycol)s. In another embodiment, excipient 526 may be a hydrophilic agent such as but not limited to salts such as sodium chloride and other materials such as urea, citric acid, and ascorbic acid. […]

Consider one molecule from patent US8381774B2, “Methods for loading a drug eluting medical device” (Medtronic Vascular, Inc., priority 2009, dated 2013).

With `CO[C@H]1C[C@@H]2CC[C@@H](C)[C@@](O)(O2)C(=O)C(=O)N2CCCC[C@H]2C(=O)O[C@H]([C@H](C)C[C@@H]2CC[C@@H](O)[C@H](OC)C2)CC(=O)[C@H](C)/C=C(\C)[C@@H](O)[C@@H](OC)C(=O)[C@H](C)C[C@H](C)/C=C/C=C/C=C/1C` [sirolimus], where the note is “hexane (precipitator solvent)”, the solubility in hexane entry is given as “insoluble”. For the setting “water”, the solubility in water result was “insoluble”.
